Assay results taken from US20150099709A1, “GHRELIN RECEPTOR AGONISTS FOR THE TREATMENT OF ACHLORHYDRIA” (RaQualia Pharma Inc., priority 2012, published 2015).

Tested on: intra-gastric pH
Assay: Measurement of intra-gastric pH in dogs (gastric fistula, pH electrode)
Type: in vivo, dog
Settings: for change of intra-gastric pH value after dosing / time for which the low intra-gastric pH is maintained: dogs, orally, dose not given
Protocol: Male beagle dogs are used. A metallic cannula is placed in on the left side of the abdomen at the lowest part of the distal gastric corpus region near the greater curvature by a surgical operation. Intra-gastric pH is measured continuously by a flexible pH electrode inserted via the gastric fistula. Vehicle or drugs are administered orally to the dogs.
Compound A 3 mg/kg is orally administered to dogs in a similar way described in Example 1. Intra-gastric pH value is between 2 and 7 in the vehicle-treated conscious dogs.

SMILES	change of intra-gastric pH value after dosing	time for which the low intra-gastric pH is maintained	time for which the low intra-gastric pH value is maintained (male beagle dogs, 3 mg/kg orally)	intra-gastric pH value maintained after administration (male beagle dogs, 3 mg/kg orally, both dogs)	change of intra-gastric pH value after administration (male beagle dogs, 3 mg/kg orally, conscious, FIG. 2)
CN(C(=O)/C=C/CC1(N)CCC1)[C@H](Cc1ccc(-c2ccccc2)cc1)C(=O)N(C)[C@H](Cc1ccccc1)C(=O)N1CCC(O)CC1 [Compound D, (E)-N—((R)-3-([1,1′-biphenyl]-4-yl)-1-(((R)-1-(4-hydroxypiperidin-1-yl)-1-oxo-3-phenylpropan-2-yl)(methyl)amino)-1-oxopropan-2-yl)-4-(1-aminocyclobutyl)-N-methylbut-2-enamide]	decreases soon just after dosing	more than 3 hours			
CN(C)N(C)C(=O)[C@@]1(Cc2ccccc2)CCCN(C(=O)[C@@H](Cc2c[nH]c3ccccc23)NC(=O)C(C)(C)N)C1 [Compound C]	decreases soon just after dosing	more than 3 hours			
CN1N=C2CCN(C(=O)[C@@H](COCc3ccccc3)NC(=O)C(C)(C)N)C[C@@]2(Cc2ccccc2)C1=O [Compound A, 2-amino-N-[2-(3a-(R)-benzyl-2-methyl-3-oxo-2,3,3a,4,6,7-hexahydropyrazolo[4,3-c]pyridin-5-yl)-1-(R)-benzyloxymethyl-2-oxo-ethyl]isobutyramide]			more than 3 hours	below 2.5	rapidly decreases after the administration
CC(C)(N)C(=O)N[C@H](COCc1ccc(F)cc1F)C(=O)N1CCC2=NN(CC(F)(F)F)C(=O)[C@]2(Cc2ccccn2)C1 [Compound B, 2-amino-N-[1-(R)-(2,4-difluoro-benzyloxymethyl)-2-oxo-2-(3-oxo-3a-(R)-pyridin-2-ylmethyl-2-(2,2,2-trifluoro-ethyl)-2,3,3a,4,6,7-hexahydropyrazolo[4,3-c]pyridin-5-yl)-ethyl]-2-methyl-propionamide]	decreases soon just after dosing	more than 3 hours			
C[C@@H]1CN[C@@H](C2CC2)C(=O)N(C)[C@H](C)C(=O)N[C@H](Cc2ccc(F)cc2)C(=O)NCCCc2ccccc2O1 [Compound E, (2R,5S,8R,11R)-5-cyclopropyl-11-(4-fluorobenzyl)-2,7,8-trimethyl-4,5,7,8,10,11,13,14,15,16-decahydro-2H-benzo[q][1,4,7,10,13]oxatetraazacyclooctadecine-6,9,12(3H)-trione]	decreases soon just after dosing	more than 3 hours			
